Assay results from patent US5399696A, “Isoquinolinyl compounds which are intermediates” (Eli Lilly and Company, priority 1993, dated 1995).
Blank lines part the entries; values can stand above or below the compound they belong to.

Assays:
AMPA receptor [1] = conditions: cited: LaPeillet et al.; cited from earlier work
AMPA receptor [2] = conditions: cited: Sheardown et al.; Buchan et al.; LePeillet et al.; cited from earlier work
NMDA receptor [3] = test: Radioligand binding: displacement of [^3 H]CGS19755 from synaptosomal membranes of rat forebrain (NMDA receptor affinity); conditions: [^3 H]CGS19755 10 nM, mean ± standard error (n = 3), values marked ^c single experiment
Experimental: (§1) The formula I compounds were tested for their ability to inhibit NMDA, AMPA, and kainic acid receptor binding to rat membranes in a radioligand binding assay using [^3 H]CGS19755, [^3 H]AMPA, and [^3 H]KA. For all radioligand binding assays, male Sprague-Dawley rats were used. […] Non-specific binding was determined using 10 μM L-glutamate. Samples were incubated in an ice-bath for 30 minutes, and bound ligand was separated from the free ligand by rapid filtration through WHATMAN GF/B glass fiber filters. Murphy et al, British J. Pharmacol., 95, 932-938 (1988). Kainate binding was performed using washed synaptosomal membranes from the rat forebrain as described by Simon et al. Simon et al, J. Neurochem., 26, 141-147 (1976). Tritiated kainate (5 nM) was added to 50 mM Tris-HCl buffer (pH 7.4 at 4° C.) containing 200-300 μg/ml of tissue protein. Samples were incubated for 30 minutes in an ice-bath, then rapidly filtered using a Brandel cell harvester and WHATMAN GF/C filters. Filters were washed twice with 3 ml of cold buffer. Non-specific binding was determined using 100 μM non-labeled kainate. The binding of [^3 H]AMPA (5 nM) was conducted with crude membranes of rat forebrain in the presence of 100 mM KSCN as described by Nielson et al. Nielson et al, Eur. J. Med. Chem. Chim. Ther., 21, 433-437 (1986). Non-specific binding was determined with 10 μM non-labeled AMPA. The concentration of the formula I compound that inhibited 50% binding (IC50, mean ±standard error, n=3) as calculated by linear regression of displacement data transformed to the Hill equation as described by Bennett. Bennett, Neurotransmitter Receptor Binding, 57-90 (1978).

AMPA receptor [4] = test: Radioligand binding: [^3 H]AMPA binding with crude membranes of rat forebrain
Experimental: as §1

[5] = target: kainic acid (KA) receptor; test: Radioligand binding: tritiated kainate binding with washed synaptosomal membranes from the rat forebrain; conditions: tritiated kainate 5 nM, pH 7.4, mean ± standard error (n = 3), values marked ^c single experiment
Experimental: as §1

NMDA receptor [6] = test: Antagonism of NMDA-induced depolarization of rat cortical wedges; format: cell-based; conditions: NMDA 40 μM, mean ± standard error (n = 3), read-out: IC50 NMDA, antagonism of cortical wedge depolarization
Experimental: (§2) The depolarization of rat cortical wedges was used to test the selectivity and potency of the formula I compounds as AMPA antagonists using a technique similar to that described by Harrison and Simmonds. Harrison and Simmonds, Bri. J. Pharmacol., 84, 381-391 (1984). Generally, 4-ml aliquots of NMDA (40 μM), AMPA (40 μM), and kainate (10 μM) were superfused (2 ml/min.) on the grey matter at intervals of 15-20 minutes until stable responses were attained. The tissue was then exposed for 15 minutes to various concentrations of the formula I compounds before retesting the agonists. The IC50 values were calculated from linear regression of log dose-response curves, each point the mean of at least three observations on separate slices from more than one animal.

AMPA receptor [7] = test: Antagonism of AMPA-induced depolarization of rat cortical wedges; format: cell-based; conditions: for IC50: AMPA 40 μM, mean ± standard error (n = 3), read-out: IC50 AMPA, antagonism of cortical wedge depolarization
Experimental: as §2

[8] = target: kainic acid (KA) receptor; test: Antagonism of kainate-induced depolarization of rat cortical wedges; format: cell-based; conditions: kainate 10 μM, mean ± standard error (n = 3)
Experimental: as §2

Structure (SMILES): CC1=NN=C(c2ccc(N)cc2)c2cc3c(cc2C1)OCO3 [GKYI 52466]
neuroprotection in rat global ischemia (in words) (AMPA receptor [1]): effective neuroprotective agent in rat global ischemia models

Structure (SMILES): NS(=O)(=O)c1cccc2c1c([N+](=O)[O-])cc1nc(O)c(O)nc12 [NBQX, 2,3-dihydroxy-6-nitro-7-sulfamoylbenzo[f]quinoxaline]
prevention of global and focal ischemic damage (in words) (AMPA receptor [2]): effective in preventing global and focal ischemic damage

Structure (SMILES): O=C(O)[C@@H]1C[C@H]2C[C@H](CSc3nnn[nH]3)CC[C@H]2CN1 (racemic) [Compound 5, (3SR,4aRS,6RS,8aRS)-6-[2-(1(2)H-Tetrazole-5-yl)-2-thiaethyl]decahydroisoquinoline-3-carboxylic Acid]
IC50 (NMDA receptor [3]; Table I, racemic): 47.9 ± 3.9 µM
IC50 (AMPA receptor [4]; Table I, racemic, [^3 H]AMPA 5 nM, 100 mM KSCN, mean ± standard error (n = 3), values marked ^c single experiment, read-out: IC50 AMPA, receptor binding): 4.9 ± 0.4 µM
IC50 (AMPA receptor [4]; text summary of Table I, racemic, read-out: selectively displaced ^3 H-AMPA with IC50 values): < 15 µM
IC50 KA, receptor binding ([5]; Table I, racemic): 37.3 ± 2.3 µM
IC50 (NMDA receptor [6]; Table III, racemic): > 100 µM
selective AMPA receptor antagonism (in words) (AMPA receptor [7]; Table III, cortical wedge, racemic): selective AMPA receptor antagonists
IC50 (AMPA receptor [7]; Table III, racemic): 6.1 ± 1.5 µM
IC50 KA, antagonism of cortical wedge depolarization ([8]; Table III, racemic): > 100 µM

IC50 (NMDA receptor [3]; Table II, enantiopure): > 100 µM
IC50 (AMPA receptor [4]; Table II, enantiopure, [^3 H]AMPA 5 nM, 100 mM KSCN, mean ± standard error (n = 3), values marked ^c single experiment, read-out: IC50 AMPA, receptor binding): 17.8 µM
IC50 KA, receptor binding ([5]; Table II, enantiopure): 27.9 µM
IC50 (NMDA receptor [6]; Table IV, enantiopure): > 100 µM
IC50 (AMPA receptor [7]; Table IV, enantiopure): 9 ± 0.8 µM
IC50 KA, antagonism of cortical wedge depolarization ([8]; Table IV, enantiopure): 29.1 ± 4.3 µM
Structure (SMILES): O=C(O)[C@@H]1C[C@H]2C[C@H](CSc3nn[nH]n3)CC[C@H]2CN1 [Compound 25, (3S,4aR,6R,8aR)-6[2(1(2)H-Tetrazole-5-yl)-2-thiaethyl]decahydroisoquinoline-3-carboxylic Acid]
